The values that follow come from patent US7696379B2, “Acetylene derivatives” (Novartis AG, priority 2005, dated 2010).

One series deals with T1, hmGluR5 (Homo sapiens, UniProt P41594).
T1 construct: expressed in transfected cells
Put plainly: inhibition of agonist induced inositol phosphate turnover in hmGluR5 expressing cells. The conditions noted are these: read-out: IC50 concentration, inhibition of quinqualate-induced inositol phosphate turnover. Format: cell-based. The source says:
This can be determined in vitro for example at recombinant human metabotropic glutamate receptors, especially PLC-coupled subtypes thereof such as mGluR5, using different procedures like, for example, measurement of the inhibition of the agonist induced elevation of intracellular Ca^2+ concentration in accordance with L. P. Daggett et al., Neuropharm. Vol. 34, pages 871-886 (1995), P. J. Flor et al., J. Neurochem. Vol. 67, pages 58-63 (1996) or by determination to what extent the agonist induced elevation of the inositol phosphate turnover is inhibited as described by T. Knoepfel et al., Eur. J. Pharmacol. Vol. 288, pages 389-392 (1994), L. P. Daggett et al., Neuropharm. Vol. 67, pages 58-63 (1996) and references cited therein. Isolation and expression of human mGluR subtypes are described in U.S. Pat. No. 5,521,297. Selected agents of the invention show IC50 values for the inhibition of the agonist (e.g. glutamate or quisqualate) induced elevation of intracellular Ca2+ concentration or the agonist (e.g. glutamate or quisqualate) induced inositol phosphate turnover, measured in recombinant cells expressing hmGluR5a of about 1 nM to about 50 μM.

Series [1] concerns stress-induced hyperthermia in mice. Put plainly: stress-induced hyperthermia in mice. Type of series: in vivo. The settings on record: control hyperthermia 0.82+/−0.1° C. The method, then: A. Lecci et al., Psychopharmacol. 101, 255-261]. At doses of about 0.1 to about 30 mg/kg p.o., selected agents of the invention reverse the stress-induced hyperthermia.
With Furan-3-carboxylic acid [(1R,3R)-3-(3-chloro-phenylethynyl)-3-hydroxy-cyclohexyl]-amide, a stress-induced hyperthermia of 0.82+/−0.1° C. was reduced to 0.37+/−0.10° C. at 3 mg/kg p.o., to 0.02+/−0.08° C. at 10 mg/kg p.o. and to −0.49+/−0.12° C. at 30 mg/kg p.o. (p<0.01; p<0.001; p<0.001 respectively).

T1 sequence (P41594 21-1180 isoform P41594-2 limits assumed): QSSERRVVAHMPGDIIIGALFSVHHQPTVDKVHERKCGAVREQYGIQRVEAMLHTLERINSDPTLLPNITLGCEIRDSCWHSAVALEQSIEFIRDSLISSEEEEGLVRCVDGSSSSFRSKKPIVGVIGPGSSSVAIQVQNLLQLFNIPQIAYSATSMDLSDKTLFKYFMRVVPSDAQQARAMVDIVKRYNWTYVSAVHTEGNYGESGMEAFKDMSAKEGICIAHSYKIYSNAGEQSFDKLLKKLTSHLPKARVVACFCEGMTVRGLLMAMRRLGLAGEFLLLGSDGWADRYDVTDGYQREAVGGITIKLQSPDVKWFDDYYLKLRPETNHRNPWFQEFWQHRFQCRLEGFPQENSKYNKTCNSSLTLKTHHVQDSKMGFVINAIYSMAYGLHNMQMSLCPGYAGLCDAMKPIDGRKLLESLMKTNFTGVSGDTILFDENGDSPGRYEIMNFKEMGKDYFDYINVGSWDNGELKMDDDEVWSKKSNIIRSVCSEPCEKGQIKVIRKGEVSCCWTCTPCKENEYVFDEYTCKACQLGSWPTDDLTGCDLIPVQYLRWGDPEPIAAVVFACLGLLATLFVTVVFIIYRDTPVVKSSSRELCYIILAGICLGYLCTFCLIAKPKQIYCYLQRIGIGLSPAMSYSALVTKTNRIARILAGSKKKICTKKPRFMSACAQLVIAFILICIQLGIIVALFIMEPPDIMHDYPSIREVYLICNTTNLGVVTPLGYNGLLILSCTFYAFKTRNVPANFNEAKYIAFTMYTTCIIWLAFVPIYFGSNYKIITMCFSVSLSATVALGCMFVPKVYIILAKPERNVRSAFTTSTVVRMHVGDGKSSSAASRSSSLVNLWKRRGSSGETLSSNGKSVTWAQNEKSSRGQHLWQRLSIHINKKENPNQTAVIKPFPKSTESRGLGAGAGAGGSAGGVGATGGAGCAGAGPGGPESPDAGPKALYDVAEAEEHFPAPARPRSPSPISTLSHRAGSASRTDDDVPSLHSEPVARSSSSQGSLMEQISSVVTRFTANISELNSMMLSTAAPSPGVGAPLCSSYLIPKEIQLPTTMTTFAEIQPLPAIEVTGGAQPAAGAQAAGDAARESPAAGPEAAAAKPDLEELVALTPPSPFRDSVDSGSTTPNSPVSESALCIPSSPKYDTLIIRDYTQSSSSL

In general, melting point refers to the temperature of the solid-liquid transition. Take `Cc1cccc(C#C[C@@]2(O)CCC[C@@H](NC(=O)c3ccoc3)C2)c1` (racemic) [Example 1.19, Furan-3-carboxylic acid ((±)-(1R,3R)-3-hydroxy-3-m-tolylethynyl-cyclohexyl)-amide]: the melting point is 135 to 138 °C.
Still for that read-out and setting: to `Cc1cccc(C#C[C@@]2(O)CCC[C@@H](NC(=O)c3ccco3)C2)c1` [Example 1.20, Furan-2-carboxylic acid ((1R,3R)-3-hydroxy-3-m-tolylethynyl-cyclohexyl)-amide] belongs 139 to 142 °C.
Consider `O=C(N[C@@H]1CCC[C@](O)(C#Cc2cccc(Cl)c2)C1)c1ccoc1` [Example 1, Furan-3-carboxylic acid [(1R,3R)-3-(3-chloro-phenylethynyl)-3-hydroxy-cyclohexyl]-amide], for which, at hmGluR5, the IC50 came to 28 nM. The stress-induced hyperthermia in series [1] (3 mg/kg p.o., p<0.01) was 0.37+/−0.10 °C; in series [1] (10 mg/kg p.o., p<0.001), 0.02+/−0.08 °C; in series [1] (30 mg/kg p.o., p<0.001), −0.49+/−0.12 °C.
With `O=C(N[C@@H]1CCC[C@](O)(C#Cc2cccc(F)c2)C1)c1cnc[nH]1` (racemic) [Example 1.37, 3H-Imidazole-4-carboxylic acid [(±)-(1R,3R)-3-(3-fluoro-phenylethynyl)-3-hydroxy-cyclohexyl]-amide], the melting point fell in the range of 190 to 191 °C.
In the case of `Cc1cccc(C#C[C@]2(O)CCC[C@H](NC(=O)c3ccco3)C2)c1` [Example 1.21, Furan-2-carboxylic acid ((1S,3S)-3-hydroxy-3-m-tolylethynyl-cyclohexyl)-amide], the melting point was 139 to 140 °C.
